Some test systems named below: MOLT-4 leukemia; SF-539 CNS; SN12C renal; SNB-75 CNS; ACHN renal; MDA-MB-231 breast; OVCAR-8 ovarian; DU-145 prostate; SW-620 colon; M14 melanoma.
Assay in all cases: DTP human tumour cell line panel, 48 h

As a reminder, the GI50 is the concentration giving 50% growth inhibition. By TGI is commonly meant the concentration at which net growth stops. Higher therefore signals lower sensitivity of the cells.

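1) Cells in 96-well plates. 2) Compound, 48 h, 5 concentrations. 3) Linear interpolation between surrounding doses. 4) Unreached endpoint = highest concentration. GI50: concentration for 50% inhibition of growth. TGI: concentration producing complete growth inhibition.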 Where only a bound is given, the exact number is not on record here.

As for `CCCCCCCCCCCCCCCCC(=O)O.CCCCCCCCCCCCCCCCCC(=O)O.CCCCCCCCCCCCCCCCCC(=O)O.CCCCCCCCCCCCCCCCCC(=O)O.CCCCCCCCCCCCCCCCCC(=O)O.CO[CH-]OC12COC1CC(O)C1(C)C(O)C(OC(C)O)C3=C(C)C(OC(=O)C(O)C([NH-])c4ccccc4)CC(O)(C(OC(=O)c4ccccc4)C21)C3(C)C.[Cu+].[Zn].[Zn].[Zn].[Zn].[Zn]` (stereo not given), the GI50 in the experiment with MOLT-4 leukemia was 0.0104 µM; with SF-539 CNS it was 0.00598 µM; in the experiment with SN12C renal, 0.0116 µM; with SNB-75 CNS, less than 0.0025 µM; with ACHN renal it was 0.272 µM; in the experiment on MDA-MB-231 breast, 0.0135 µM. For the same compound, the results for the GI50 in the experiment on OVCAR-8 ovarian, in the experiment with DU-145 prostate and in the experiment with SW-620 colon were 0.0102 µM, 0.00871 µM and 0.00662 µM, respectively. Further, the TGI in the experiment on MOLT-4 leukemia was more than 18.5 µM; in the experiment with SF-539 CNS, 0.0506 µM; with SN12C renal it was more than 25 µM; in the experiment on SNB-75 CNS, 0.0211 µM; in the experiment with ACHN renal, more than 25 µM; in the experiment with MDA-MB-231 breast, 4.48 µM. The TGI is more than 25 µM in the experiment on OVCAR-8 ovarian, 1.63 µM in the experiment with DU-145 prostate and more than 16.2 µM in the experiment on SW-620 colon.

In the case of `COc1ccc(/C=C/C(=O)c2ccc(OC)c(OC)c2)cc1O`, the GI50 in the experiment with MOLT-4 leukemia is 4.32 µM; in the experiment on SF-539 CNS it was 2.49 µM; in the experiment on SN12C renal it was 3.74 µM; with M14 melanoma, 10.9 µM; in the experiment on ACHN renal, 6.15 µM; in the experiment on MDA-MB-231 breast it was 4.76 µM. For the same compound, the GI50 with OVCAR-8 ovarian is 2.98 µM; with DU-145 prostate, 2.34 µM; with SW-620 colon, 3.09 µM. Also, the concentration for total growth inhibition (TGI) with MOLT-4 leukemia is 26.1 µM; in the experiment with SF-539 CNS, 7.34 µM; in the experiment with SN12C renal it was 15.6 µM; in the experiment with M14 melanoma it was 23.3 µM; in the experiment on ACHN renal, more than 100 µM; with MDA-MB-231 breast, 31.8 µM. Also, the TGI amounted to 10.9 µM in the experiment with OVCAR-8 ovarian, 5.64 µM with DU-145 prostate and 12.8 µM in the experiment with SW-620 colon.

Take `COc1ccc(-n2ccnc2-c2cc(OC)c(OC)c(OC)c2)cc1`: the GI50 was 5.75 µM with MOLT-4 leukemia; 3.27 µM in the experiment with SF-539 CNS; 6.24 µM in the experiment on SN12C renal; 2.19 µM in the experiment on SNB-75 CNS; 2.46 µM with M14 melanoma; 6.13 µM with MDA-MB-231 breast. The GI50 in the experiment with OVCAR-8 ovarian is 4.71 µM; with DU-145 prostate, 6.66 µM; in the experiment with SW-620 colon, 2.37 µM. In addition, the total growth inhibition concentration (TGI) in the experiment on MOLT-4 leukemia was more than 100 µM; with SF-539 CNS, 29.1 µM; in the experiment with SN12C renal, more than 100 µM; in the experiment with SNB-75 CNS, 6.31 µM; with M14 melanoma it was more than 100 µM; with MDA-MB-231 breast it was more than 100 µM. For the same compound, the total growth inhibition concentration (TGI) in the experiment with OVCAR-8 ovarian, in the experiment on DU-145 prostate and in the experiment with SW-620 colon was more than 100 µM throughout.

Consider `Cc1ccc(Cl)c(Nc2ccccc2C(=O)O)c1Cl`, for which the GI50 in the experiment on MOLT-4 leukemia is 29.9 µM; with SF-539 CNS it was 23.6 µM; in the experiment with SN12C renal it was 30.7 µM; with M14 melanoma, 21.3 µM; in the experiment with ACHN renal, 32.7 µM; in the experiment with MDA-MB-231 breast, 32.1 µM. For the same compound, the figures for the GI50 with OVCAR-8 ovarian, in the experiment on DU-145 prostate and in the experiment on SW-620 colon were 29.6 µM, 28.9 µM and 34.4 µM, respectively. Further, the TGI with MOLT-4 leukemia was 83.9 µM; in the experiment with SF-539 CNS, 51.3 µM; in the experiment on SN12C renal it was more than 100 µM; in the experiment with M14 melanoma it was 62.6 µM; in the experiment with ACHN renal it was more than 100 µM; in the experiment on MDA-MB-231 breast it was more than 100 µM. The TGI with OVCAR-8 ovarian is more than 100 µM; in the experiment with DU-145 prostate it was 71.8 µM; with SW-620 colon, more than 100 µM.

Take `COc1cc(/C=C/C(=O)N2CCN(C(=O)c3cc(OC)c(OC)c(OC)c3)CC2)ccc1OCCCOc1cc2c(cc1OC)C(=O)N1CCC[C@H]1C=N2`: the GI50 in the experiment on MOLT-4 leukemia was 0.218 µM; in the experiment with SF-539 CNS, 0.248 µM; in the experiment on SN12C renal, 0.303 µM; with SNB-75 CNS, 0.241 µM; in the experiment with M14 melanoma it was 0.346 µM; in the experiment on ACHN renal, 2.64 µM. The GI50 with OVCAR-8 ovarian is 0.345 µM; in the experiment with DU-145 prostate it was 0.351 µM; in the experiment on SW-620 colon, 0.198 µM. Moreover, the TGI was 1.59 µM in the experiment on MOLT-4 leukemia; 0.578 µM with SF-539 CNS; 21.8 µM with SN12C renal; 0.642 µM in the experiment on SNB-75 CNS; 1.42 µM in the experiment with M14 melanoma; more than 35.3 µM with ACHN renal. Moreover, the figures for the TGI in the experiment on DU-145 prostate and in the experiment on SW-620 colon were 11.5 µM and 0.446 µM, respectively.

On to `Clc1ccc(-c2cc(-c3ccccc3)nc(NCCNc3ccnc4cc(Cl)ccc34)n2)cc1`, for which the GI50 is 1.89 µM in the experiment with MOLT-4 leukemia; 1.72 µM with SF-539 CNS; 1.74 µM with SN12C renal; 1.58 µM with SNB-75 CNS; 1.72 µM with ACHN renal; 1.88 µM with MDA-MB-231 breast. For the same compound, the GI50 in the experiment with OVCAR-8 ovarian is 1.91 µM; with DU-145 prostate it was 1.82 µM; in the experiment on SW-620 colon, 1.7 µM. Also, the TGI in the experiment on MOLT-4 leukemia stood at 4.19 µM; with SF-539 CNS it was 3.34 µM; with SN12C renal it was 3.28 µM; in the experiment on SNB-75 CNS it was 3.08 µM; in the experiment on ACHN renal it was 3.24 µM; with MDA-MB-231 breast, 3.57 µM. Also, the TGI with OVCAR-8 ovarian was 4.1 µM; in the experiment with DU-145 prostate, 3.31 µM; in the experiment on SW-620 colon it was 3.48 µM.

For the compound `CS(=O)(=O)CC(=O)c1ccccc1`, the TGI in the experiment with MOLT-4 leukemia, with SF-539 CNS, in the experiment on SN12C renal, in the experiment on SNB-75 CNS, with M14 melanoma and with ACHN renal was more than 100 µM each time. The TGI with OVCAR-8 ovarian, in the experiment on DU-145 prostate and in the experiment with SW-620 colon was more than 100 µM in each case.

Regarding `O=C1c2cc([N+](=O)[O-])ccc2-c2ccc3c4ccc5c6c(ccc(c7ccc1c2c73)c64)C(=O)c1cc([N+](=O)[O-])ccc1-5`, the TGI with MOLT-4 leukemia, in the experiment on SN12C renal, in the experiment with SNB-75 CNS, in the experiment with M14 melanoma, in the experiment with ACHN renal and in the experiment with MDA-MB-231 breast was more than 100 µM throughout. For the same compound, the TGI in the experiment on OVCAR-8 ovarian, in the experiment on DU-145 prostate and in the experiment on SW-620 colon was more than 100 µM each time.
